In brackets after ≈: the same amount, converted by molar mass. Counter-ions that a name gives are not always drawn. Like-named read-outs stand apart in the source and are kept apart here.
What was measured:
Test in all cases: In vitro antibacterial activity, microtitration dilution method (MIC)
Format in all cases: cell-based
[1] = test system: Staphylococcus aureus H 228; conditions: H228, read-out: Minimal Inhibitory Concentration MIC
Source text: The compounds of the invention display antibacterial activity when tested by the microtitration dilution method as described in Heifetz, et al, Antimicr. Agents & Chemoth., 6, 124 (1974), which is incorporated herein by reference.
By use of the above reference method, the followed minimum inhibitory concentration value (MICs in μg/ml) shown in the table were obtained for representative compounds of the invention.

[2] = test system: Staphylococcus aureus UC-76
Source text: (§1) Agents & Chemoth., 6, 124 (1974), which is incorporated herein by reference.

[3] = test system: Proteus rettgeri M 1771; conditions: Providencia rettgeri
Source text: as §1

[4] = test system: Klebsiella pneumoniae MGH-2
Source text: as §1

[5] = test system: Escherichia coli Vogel; conditions: read-out: Minimal Inhibitory Concentration MIC
Source text: as §1

[6] = test system: Enterobacter cloacae MA 2646
Source text: as §1

[7] = test system: Streptococcus pneumoniae SV-1
Source text: as §1

[8] = test system: Pseudomonas aeruginosa UI-18
Source text: as §1

[9] = test system: Streptococcus faecalis MGH-2; conditions: Enterococcus faecalis
Source text: as §1

[10] = test system: Streptococcus pyogenes C-203
Source text: as §1

[11] = UC76, Staphylococcus aureus UC-76, in vitro, read-out: Minimal Inhibitory Concentration MIC
[12] = M1771, Proteus rettgeri M 1771, in vitro, read-out: Minimal Inhibitory Concentration MIC
[13] = MGH2, Klebsiella pneumoniae MGH-2, in vitro, read-out: Minimal Inhibitory Concentration MIC
[14] = MA2646, Enterobacter cloacae MA 2646, in vitro, read-out: Minimal Inhibitory Concentration MIC
[15] = SV1, Streptococcus pneumoniae SV-1, in vitro, read-out: Minimal Inhibitory Concentration MIC
[16] = UI18, Pseudomonas aeruginosa UI-18, in vitro, read-out: Minimal Inhibitory Concentration MIC
[17] = MGH2, Streptococcus faecalis MGH-2, in vitro, read-out: Minimal Inhibitory Concentration MIC
[18] = C203, Streptococcus pyogenes C-203, in vitro, read-out: Minimal Inhibitory Concentration MIC

SMILES	MIC [1] [µg/mL]	MIC [2, 11] [µg/mL]	MIC [3, 12] [µg/mL]	MIC [4, 13] [µg/mL]	MIC [5] [µg/mL]	MIC [6, 14] [µg/mL]	MIC [7, 15] [µg/mL]	MIC [8, 16] [µg/mL]	MIC [9, 17] [µg/mL]	MIC [10, 18] [µg/mL]	MIC ([2]; Staphylococcus aureus, UC76, read-out: Minimal Inhibitory Concentration MIC) [µg/mL]	MIC ([4]; Klebsiella pneumoniae, MGH2, read-out: Minimal Inhibitory Concentration MIC) [µg/mL]	MIC ([3]; M1771, read-out: Minimal Inhibitory Concentration MIC) [µg/mL]	MIC ([6]; Enterobacter cloacae, MA2646, read-out: Minimal Inhibitory Concentration MIC) [µg/mL]	MIC ([7]; Streptococcus pneumoniae, SV1, read-out: Minimal Inhibitory Concentration MIC) [µg/mL]	MIC ([10]; Streptococcus pyogenes, C203, read-out: Minimal Inhibitory Concentration MIC) [µg/mL]	MIC ([8]; Pseudomonas aeruginosa, UI18, read-out: Minimal Inhibitory Concentration MIC) [µg/mL]	MIC ([9]; MGH2, read-out: Minimal Inhibitory Concentration MIC) [µg/mL]
CN1CC2CC1CN2c1c(F)cc2c(=O)c(C(=O)O)cn(C3CC3)c2c1F.Cl (stereo not drawn) [Ex. 10c, 1-cyclopropyl-6,8-difluoro-1,4-dihydro-7-(5-methyl-2,5-diazabicyclo[2.2.1]hept-2-yl)-4-oxo-3-quinolinecarboxylic acid monohydrochloride]	0.1	0.025	0.2	0.05	0.05	0.1	0.4	0.4	0.4	0.4								
Cl.O=C(O)c1cn(C2CC2)c2nc(N3CC4CC3CN4)c(F)cc2c1=O (stereo not drawn) [Ex. 7c, 1-cyclopropyl-7-[2,5-diazabicyclo(2.2.1)hept-2-yl]-6-fluoro-1,4-dihydro-4-oxo-1,8-naphthyridine-3-carboxylic acid, monohydrochloride]	0.8	0.2	0.2	0.05	0.1	0.05	0.8		0.8	0.2								
CCn1cc(C(=O)O)c(=O)c2cc(F)c(N3CC4CCC3CN4)c(F)c21 (stereo not drawn) [Ex. 2, 7-(2,5-Diazabicyclo[2.2.2]oct-2-yl)-1-ethyl-6,8-difluoro-1,4-dihydro-4-oxo-3-quinolinecarboxylic acid]	0.4 (≈ 1.1 µM)	≤ 0.1	0.8 (≈ 2.2 µM)	0.4 (≈ 1.1 µM)	0.1 (≈ 0.275 µM)	0.2 (≈ 0.55 µM)	0.8 (≈ 2.2 µM)	0.4 (≈ 1.1 µM)	1.6 (≈ 4.4 µM)	0.4 (≈ 1.1 µM)								
CCn1cc(C(=O)O)c(=O)c2cc(F)c(N3[C@@H]4CC[C@H]3C[C@H](N)C4)nc21 [Ex. 20, 7-(3-(Exo-amino)-8-azabicyclo[3.2.1]oct-8-yl]-1-ethyl-6-fluoro-1,4-dihydro-4-oxo-1,8-naphthyridine-3-carboxylic acid, hydrochloride]	0.4		0.8	0.4	0.4	0.8	0.4	0.8	0.8	0.4	0.2							
O=C(O)c1cn(C2CC2)c2nc(N3CCN4CCC3C4)c(F)cc2c1=O (stereo not drawn) [Ex. 14]	0.8 (≈ 2.23 µM)	0.1 (≈ 0.279 µM)	0.4 (≈ 1.12 µM)		0.05 (≈ 0.14 µM)	0.1 (≈ 0.279 µM)	0.8 (≈ 2.23 µM)	0.8 (≈ 2.23 µM)	0.8 (≈ 2.23 µM)	0.4 (≈ 1.12 µM)		0.1 (≈ 0.279 µM)						
CCn1cc(C(=O)O)c(=O)c2cc(F)c(N3CCN4CCC3C4)c(F)c21 (stereo not drawn) [Ex. 16, 7-(1,4-Diazabicyclo[3.2.1]oct-4-yl)-1-ethyl-6,8-difluoro-1,4-dihydro-4-oxo-3-quinolinecarboxylic acid]	0.4 (≈ 1.1 µM)	0.1 (≈ 0.275 µM)	0.2 (≈ 0.55 µM)	0.1 (≈ 0.275 µM)		0.5 (≈ 1.38 µM)	0.8 (≈ 2.2 µM)	0.4 (≈ 1.1 µM)	0.8 (≈ 2.2 µM)	0.4 (≈ 1.1 µM)								
O=C(O)c1cn(C2CC2)c2c(F)c(N3CC4CC3CN4)c(F)cc2c1=O (stereo not drawn) [Ex. 7d, 1-cyclopropyl-7-[2,5-diazabicyclo(2.2.1)hept-2-yl]-6,8-difluoro-1,4-dihydro-4-oxo-3-quinolinecarboxylic acid]	0.8 (≈ 2.21 µM)	0.2 (≈ 0.553 µM)		0.1 (≈ 0.277 µM)	0.05 (≈ 0.138 µM)	0.1 (≈ 0.277 µM)	1.6 (≈ 4.43 µM)	0.2 (≈ 0.553 µM)	0.8 (≈ 2.21 µM)	0.2 (≈ 0.553 µM)			0.1 (≈ 0.277 µM)					
O=C(O)c1cn(C2CC2)c2nc(N3CC4CCC3CN4)c(F)cc2c1=O (stereo not drawn) [Ex. 6a, 7-(2,5-diazabicyclo[2.2.2]oct-2-yl)-1-cyclopropyl-6-fluoro-1,4-dihydro-4-oxo-1,8-naphthyridine-3-carboxylic acid]	0.05 (≈ 0.14 µM)	0.006 (≈ 0.0167 µM)	0.4 (≈ 1.12 µM)	0.05 (≈ 0.14 µM)	0.1 (≈ 0.279 µM)	0.1 (≈ 0.279 µM)	0.4 (≈ 1.12 µM)	0.2 (≈ 0.558 µM)	0.4 (≈ 1.12 µM)	0.4 (≈ 1.12 µM)								
O=C(O)c1cn(C2CC2)c2c(F)c(N3CCN4CCC3C4)c(F)cc2c1=O (stereo not drawn) [Ex. 17, 1-Cyclopropyl-7-(1,4-diazabicyclo[3.2.1]oct-4-yl)-6,8-difluoro-1,4-dihydro-4-oxo-3-quinolinecarboxylic acid]	0.4 (≈ 1.07 µM)	0.025 (≈ 0.0666 µM)	0.2 (≈ 0.533 µM)	0.05 (≈ 0.133 µM)	0.05 (≈ 0.133 µM)	0.025 (≈ 0.0666 µM)	0.4 (≈ 1.07 µM)	0.4 (≈ 1.07 µM)	0.2 (≈ 0.533 µM)	0.1 (≈ 0.266 µM)								
O=C(O)c1cn(C2CC2)c2c(F)c(N3CC4CCC3CN4)c(F)cc2c1=O (stereo not drawn) [Ex. 3, 7-(2,5-Diazabicyclo[2.2.2]oct-2-yl)-1-cyclopropyl-6,8-difluoro-1,4-dihydro-4-oxo-3-quinolinecarboxylic acid]	0.4 (≈ 1.07 µM)	0.025 (≈ 0.0666 µM)	0.8 (≈ 2.13 µM)	0.1 (≈ 0.266 µM)	0.05 (≈ 0.133 µM)			0.8 (≈ 2.13 µM)	1.6 (≈ 4.26 µM)					0.05 (≈ 0.133 µM)	1.6 (≈ 4.26 µM)	0.8 (≈ 2.13 µM)		
CCn1cc(C(=O)O)c(=O)c2cc(F)c(N3CC4CCC3CN4C)nc21.Cl (stereo not drawn) [Ex. 10a, 1-Ethyl-6-fluoro-7-(5-methyl-2,5-diazabicyclo[2.2.2]oct-2-yl)-1,4-dihydro-4-oxo-1,8-naphthyridine-3-carboxylic acid hydrochloride]	0.4	0.2	1.6	0.4	0.4	< 0.1	1.6	1.6	1.6	1.6								
CN1CC2CC1CN2c1nc2c(cc1F)c(=O)c(C(=O)O)cn2C1CC1 (stereo not drawn) [Ex. 10b, 1-cyclopropyl-6-difluoro-1,4-dihydro-7-(5-methyl-2,5-diazabicyclo[2.2.1]hept-2-yl)-4-oxo-1,8-naphthyridine-3-carboxylic acid monohydrochloride]	0.4	0.1	0.4	0.05	0.05		0.4			0.4							0.4	0.8
